The values below come from patent publication US11910795B2, “Natural indole auxin and aminopolycarboxylic acid herbicidal compositions” (Suncor Energy Inc., priority 2013, dated 2024).

The subject of data set [1] is Dandelions. Kind of data set: Control of dandelions in greenhouse study (Example 2, IBA/EDTA). It counts as in vivo. The conditions noted are these: for control on weeds: Table 3 (FIG. 3), greenhouse, 200 gpa, result in words; for effect on weeds at concentrations greater than 5% by weight / herbicidal effect at concentrations lower than 5% by weight: tested alone; for effect on weeds at concentrations greater than 5% by weight: Table 3; for herbicidal effect at concentrations lower than 5% by weight: Table 3 (IBA: Tr 2-4). How it is done: (§1) Dandelions and Kentucky Bluegrass were seeded and grown in the greenhouse for at least 10 weeks before treatment. Ready-to-use formulations containing indole-3-butyric acid (IBA) and ethylenediaminetetraacetic acid (EDTA), including ethylenediaminetetraacetic acid tetrasodium salt (EDTA Na4), ethylenediaminetetraacetic acid disodium salt (EDTA Na2), and ethylenediaminetetraacetic acid calcium sodium salt, and combinations of IBA and a chelator were prepared as detailed in Table 3 with the remainder of the formulation being comprised of water. IBA was initially dissolved in KHCO3 when the acid could not be dissolved directly and then diluted in water to the concentration indicated (this is indicated below in Table 3 by the label IBA-K). The prepared formulations were applied to sections of the dandelion and Kentucky Bluegrass plots at a rate of 200 gallons per acre (gpa).
(§2) Injuries to the grass and weeds were visually inspected and rated for 4 weeks using a 0-10 scale: 0=no injury; 10=plant dead. For turfgrass, ratings greater than 3 indicated unacceptable phytotoxicity. The numbers indicate the maximum effect observed on the various plants. When regrowth of the plants following application was observed, it is noted in the table following the overall injury score.

Data set [2] concerns Dandelions. Kind of data set: Field testing control of dandelions in Ontario (Example 5). It counts as in vivo. The conditions noted are these: Table 6 (FIG. 6), 200 gpa, rated 10 and 30 days following application. How it is done:
Formulations containing IBA, DTPA, and combinations of IBA with various chelating agents including salts of DTPA, EDTA, ethylenediamine-N,N′-disuccinic acid (EDDS), N-(hydroxyethyl)-ethylenediaminetriacetic acid (HEDTA), and lignosulfonic acid were prepared as detailed in Table 6 the solutions were prepared in water at the concentrations indicated ([…]). The formulations were applied at a rate of 200 gpa onto sections of a plot containing dandelions and other weeds in Ontario, Canada. Injuries to the grass and dandelions were visually inspected and rated 10 days and 30 days following application of the formulations. Performance of the formulations was evaluated based on the percentage of control of the dandelions observed. Injuries to the grass were also rated using a 0-10 scale: 0=no injury; 10=plant dead, severe injury.

A further data set has as its system Kentucky Bluegrass. Kind of data set: Injury to Kentucky Bluegrass in greenhouse study (Example 2, IBA/EDTA). The conditions noted are these: tested alone, Table 3. It counts as in vivo. How it is done:
as §1, §2

A short description of data set [3]: Solubility of IBA in aqueous solutions (Example 9). It counts as physicochemical. The source says: The solubility of IBA and its salts was investigated in various aqueous solutions under different pH conditions. The effect of chelators such as EDTA and HEDTA on the solubility of IBA was also investigated. The data provided further evidence of the relatively limited water solubility of the IBA acid (<0.1%).

The nature of data set [4]: Dissolving IBA when preparing formulations (Example 2). It counts as physicochemical. The conditions noted are these: Treatment 10, 12 and 14 of Table 3. How it is done: as §1
Another data set relates to buckhorn plantains. Kind of data set: Field testing control of buckhorn plantain in North Carolina (Example 4). It counts as in vivo. The conditions noted are these: Table 5 (FIG. 5). How it is done:
The formulations were applied at a rate of 200 gpa onto sections of a plot containing buckhorn plantains and other weeds in North Carolina, U.S.A. A second application of the formulations was made 21 days following the initial application. The sections were visually inspected and rated over the course of 56 days following the initial application. Performance of the formulations was evaluated based on the percentage control of the buckhorn plantains observed in each section.

As for `O=C(O)CN(CCN(CC(=O)O)CC(=O)O)CC(=O)O` [EDTA, ethylenediaminetetraacetic acid], in the data set with Dandelions [1], the control on weeds result is listed as “low to moderate control”, the “effect on weeds at concentrations greater than 5% by weight” value is reported as “burns the leaves of weeds” and the “herbicidal effect at concentrations lower than 5% by weight” value is recorded as “limited herbicidal effect”. In the data set on Dandelions [1] (Table 3, after application), the “regrowth of the weeds” value is on record as “grow back after 14 or 28 DAT”.
Regarding `O=C(O)CCCc1c[nH]c2ccccc12` [IBA, indole-3-butyric acid], the “control of the dandelions” value in the data set with Dandelions [2] was “moderate control”. In the data set on Dandelions [1], the control on weeds entry is on record as “low to moderate control”, the “effect on weeds at concentrations greater than 5% by weight” value is “exhibited control of the weeds” and the “herbicidal effect at concentrations lower than 5% by weight” value is given as “limited herbicidal effect”. Moreover, the “injury to the grass at concentrations greater than 5% by weight” value in the data set with Kentucky Bluegrass is “severe injury”. Also, in data set [3] (1% solution of IBA), the “dissolution of a 1% solution under alkaline conditions” value is given as “dissolves well” and the “pH at which a 1% solution was stable” value is above 6. Moreover, the water solubility in data set [3] (IBA acid in water) was below 0.1%. In addition, the “dissolution of IBA in EDTA-Na4” value in data set [4] is “can be dissolved in EDTA-Na4 directly without addition of KHCO3”.
In the case of `O=C(O)CN(CCN(CC(=O)O)CC(=O)O)CCN(CC(=O)O)CC(=O)O` [DTPA, diethylenetriaminepentaacetic acid], in the data set with Dandelions [2], the “control of the dandelions” value was “moderate control”. Further, in the data set with buckhorn plantains, the “time after which the weeds began to exhibit regrowth” value is recorded as above 25 days. For the same compound, the “control on the buckhorn plantains” value with buckhorn plantains (200 gpa, second application after 21 days, rated over 56 days) is “moderate control”.
